From the NIST ThermoML archive (doi:10.1021/je025660t)

Conditions: Liquid

COCC(C)O (centres undefined) [1-methoxy-2-propanol]
Conditions | vapor or sublimation pressure [kPa]
331.47 K | 9.246
333.15 K | 10.01
339.12 K | 13.11
343.15 K | 15.79
347.71 K | 19.25
351.56 K | 22.64
353.15 K | 24.17
355.59 K | 26.69
358.15 K | 29.57
360.78 K | 32.79
363.01 K | 35.74
368.23 K | 43.48
373.31 K | 52.31

CCCCCN [1-pentanamine]
Conditions | vapor or sublimation pressure [kPa]
322.61 K | 13.08
328.37 K | 16.87
333.14 K | 20.65
338.07 K | 25.25
340.66 K | 27.99
343.16 K | 30.85
345.56 K | 33.81
348.11 K | 37.22
353.15 K | 44.75
358.15 K | 53.38
363.14 K | 63.27
370.62 K | 80.72
377.93 K | 101.33

CC#N [acetonitrile]
Conditions | vapor or sublimation pressure [kPa]
302.25 K | 14.15
307.09 K | 17.52
311.49 K | 21.13
313.15 K | 22.65
316.27 K | 25.72
318.18 K | 27.78
320.65 K | 30.64
323.16 K | 33.8
326.16 K | 37.9
328.5 K | 41.38
331.15 K | 45.62
333.15 K | 49.06
335.84 K | 54.01
338.15 K | 58.58
343.18 K | 69.62
348.25 K | 82.37
353.1 K | 96.34

CCC#N [propanenitrile]
Conditions | vapor or sublimation pressure [kPa]
309.38 K | 10.59
311.56 K | 11.55
313.15 K | 12.55
315.89 K | 14.14
318.35 K | 15.71
320.51 K | 17.22
323.15 K | 19.22
325.74 K | 21.35
328.27 K | 23.64
330.82 K | 26.11
333.15 K | 28.57
335.82 K | 31.64
338.22 K | 34.61
343.08 K | 41.33
348.09 K | 49.32
353.15 K | 58.6
